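The compound was tested at five concentrations on cells cultured in 96-well plates, with a 48-hour exposure period. Abbreviation: GI50, concentration required for 50% inhibition of growth.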 Activity calls are given as the source filed them. Cut-off read from the data, not from the text of the source: active = GI50 up to about 1.1 µM and inactive = higher.
Legend:
Assay in all cases: NCI tumour cell line growth inhibition, 48 h
HOP-92 = test system: HOP-92
DU-145 = test system: DU-145
SR = test system: SR
NCI-H226 = test system: NCI-H226
786-0 = test system: 786-0
CCRF-CEM = test system: CCRF-CEM
A498 = test system: A498
K562 = test system: K562
MDA-MB-231 = test system: MDA-MB-231
KM12 = test system: KM12
RXF 393 = test system: RXF 393
M14 = test system: M14
OVCAR-8 = test system: OVCAR-8
SK-OV-3 = test system: SK-OV-3
TK-10 = test system: TK-10
UACC-62 = test system: UACC-62
SF-295 = test system: SF-295
BT-549 = test system: BT-549
COLO 205 = test system: COLO 205
CAKI-1 = test system: CAKI-1
U-251 = test system: U-251
SW-620 = test system: SW-620
MDA-N = test system: MDA-N
SK-MEL-28 = test system: SK-MEL-28
MDA-MB-435 = test system: MDA-MB-435
PC-3 = test system: PC-3
SNB-19 = test system: SNB-19
LOX IMVI = test system: LOX IMVI
IGROV-1 = test system: IGROV-1
NCI-H460 = test system: NCI-H460
MCF7 = test system: MCF7
UO-31 = test system: UO-31
ACHN = test system: ACHN
SN12C = test system: SN12C
A549 = test system: A549
NCI-H23 = test system: NCI-H23
SK-MEL-2 = test system: SK-MEL-2
HCT-116 = test system: HCT-116
EKVX = test system: EKVX
OVCAR-4 = test system: OVCAR-4
Malme-3M = test system: Malme-3M
SK-MEL-5 = test system: SK-MEL-5
HCT-15 = test system: HCT-15
UACC-257 = test system: UACC-257
SF-268 = test system: SF-268
NCI-H522 = test system: NCI-H522
NCI/ADR-RES = test system: NCI/ADR-RES
HCC 2998 = test system: HCC 2998
T47D = test system: T47D
HT-29 = test system: HT-29
MOLT-4 = test system: MOLT-4
Hs-578T = test system: Hs-578T
HL-60 = test system: HL-60
HOP-62 = test system: HOP-62
OVCAR-3 = test system: OVCAR-3
OVCAR-5 = test system: OVCAR-5
RPMI-8226 = test system: RPMI-8226
SF-539 = test system: SF-539
SNB-75 = test system: SNB-75

With `C=C1C(=O)OC2CCN3CC=C(COC(=O)C(C)(O)C4(CO4)C1C)C23` (centres undefined) the GI50 (HOP-92) was > 100 µM (inactive), the GI50 (DU-145) was > 100 µM (inactive) and the GI50 (SR) was > 100 µM (inactive). For the same compound, the GI50 (NCI-H226) was > 100 µM (inactive), the GI50 (786-0) was > 100 µM (inactive) and the GI50 (CCRF-CEM) was > 100 µM (inactive). For the same compound, the GI50 (A498) was > 100 µM (inactive), the GI50 (K562) was > 100 µM (inactive) and the GI50 (MDA-MB-231) was > 100 µM (inactive). For the same compound, the GI50 (KM12) was > 100 µM (inactive), the GI50 (RXF 393) was > 100 µM (inactive) and the GI50 (M14) was > 100 µM (inactive). For the same compound, the GI50 (OVCAR-8) was > 100 µM (inactive), the GI50 (SK-OV-3) was > 100 µM (inactive) and the GI50 (TK-10) was > 100 µM (inactive). For the same compound, the GI50 (UACC-62) was > 100 µM (inactive), the GI50 (SF-295) was > 100 µM (inactive) and the GI50 (BT-549) was > 100 µM (inactive). For the same compound, the GI50 (COLO 205) was > 100 µM (inactive), the GI50 (CAKI-1) was > 100 µM (inactive) and the GI50 (U-251) was > 100 µM (inactive). The GI50 (SW-620) was > 100 µM (inactive), the GI50 (MDA-N) was > 100 µM (inactive) and the GI50 (SK-MEL-28) was > 100 µM (inactive). For the same compound, the GI50 (MDA-MB-435) was > 100 µM (inactive), the GI50 (PC-3) was > 100 µM (inactive) and the GI50 (SNB-19) was > 100 µM (inactive). For the same compound, the GI50 (LOX IMVI) was > 100 µM (inactive), the GI50 (IGROV-1) was > 100 µM (inactive) and the GI50 (NCI-H460) was > 100 µM (inactive). The GI50 (MCF7) was > 100 µM (inactive), the GI50 (UO-31) was > 100 µM (inactive) and the GI50 (ACHN) was > 100 µM (inactive). For the same compound, the GI50 (SN12C) was > 100 µM (inactive), the GI50 (A549) was > 100 µM (inactive) and the GI50 (NCI-H23) was > 100 µM (inactive). For the same compound, the GI50 (SK-MEL-2) was > 100 µM (inactive), the GI50 (HCT-116) was > 100 µM (inactive) and the GI50 (EKVX) was > 100 µM (inactive). The GI50 (OVCAR-4) was > 100 µM (inactive), the GI50 (Malme-3M) was > 100 µM (inactive) and the GI50 (SK-MEL-5) was > 100 µM (inactive). For the same compound, the GI50 (HCT-15) was greater than 100 µM, the GI50 (UACC-257) was > 100 µM (inactive) and the GI50 (SF-268) was > 100 µM (inactive). For the same compound, the GI50 (NCI-H522) was > 100 µM (inactive), the GI50 (NCI/ADR-RES) was > 100 µM (inactive) and the GI50 (HCC 2998) was > 100 µM (inactive). The GI50 (T47D) was > 100 µM (inactive), the GI50 (HT-29) was > 100 µM (inactive) and the GI50 (MOLT-4) was > 100 µM (inactive). The GI50 (Hs-578T) was > 100 µM (inactive).

`Cc1ccc(N2C(=O)C3c4[nH]c5ccccc5c4C4CCC(C(C)(C)C)CC4C3C2=O)cc1` (centres undefined) was tested, and the GI50 (HOP-92) was 15.1 µM (inactive), the GI50 (DU-145) was 2.48 µM (inactive) and the GI50 (SR) was 6.05 µM (inactive). For the same compound, the GI50 (NCI-H226) was 17.4 µM (inactive), the GI50 (HL-60) was 7.62 µM (inactive) and the GI50 (786-0) was 5.06 µM (inactive). For the same compound, the GI50 (CCRF-CEM) was 5.36 µM (inactive), the GI50 (A498) was 16.2 µM (inactive) and the GI50 (K562) was 5.51 µM (inactive). For the same compound, the GI50 (HOP-62) was 5.38 µM (inactive), the GI50 (OVCAR-3) was 3.03 µM (inactive) and the GI50 (MDA-MB-231) was 3.78 µM (inactive). The GI50 (KM12) was 17.5 µM (inactive), the GI50 (RXF 393) was 10.4 µM (inactive) and the GI50 (M14) was 13.6 µM (inactive). For the same compound, the GI50 (OVCAR-8) was 7.71 µM (inactive), the GI50 (SK-OV-3) was 14.9 µM (inactive) and the GI50 (TK-10) was 6 µM (inactive). The GI50 (UACC-62) was 16.4 µM (inactive), the GI50 (SF-295) was 8.15 µM (inactive) and the GI50 (BT-549) was 19.2 µM (inactive). For the same compound, the GI50 (COLO 205) was 8.95 µM (inactive), the GI50 (OVCAR-5) was 14.1 µM (inactive) and the GI50 (CAKI-1) was 10.2 µM (inactive). For the same compound, the GI50 (U-251) was 4.49 µM (inactive), the GI50 (SW-620) was > 26.1 µM (inactive) and the GI50 (MDA-N) was 16.8 µM (inactive). The GI50 (SK-MEL-28) was 18.3 µM (inactive), the GI50 (MDA-MB-435) was 16.8 µM (inactive) and the GI50 (PC-3) was 13 µM (inactive). For the same compound, the GI50 (SNB-19) was 8.75 µM (inactive), the GI50 (LOX IMVI) was 11.6 µM (inactive) and the GI50 (IGROV-1) was 11.4 µM (inactive). The GI50 (NCI-H460) was 6.46 µM (inactive), the GI50 (MCF7) was 12.6 µM (inactive) and the GI50 (UO-31) was 14.9 µM (inactive). For the same compound, the GI50 (ACHN) was 6.64 µM (inactive), the GI50 (SN12C) was 10.3 µM (inactive) and the GI50 (A549) was 10.1 µM (inactive). For the same compound, the GI50 (NCI-H23) was 15.1 µM (inactive), the GI50 (SK-MEL-2) was 21.3 µM (inactive) and the GI50 (HCT-116) was 11.1 µM (inactive). The GI50 (EKVX) was 13.6 µM (inactive), the GI50 (OVCAR-4) was 7.21 µM (inactive) and the GI50 (Malme-3M) was 6.9 µM (inactive). For the same compound, the GI50 (SK-MEL-5) was 16.8 µM (inactive), the GI50 (HCT-15) was 34.6 µM and the GI50 (UACC-257) was 13.3 µM (inactive). The GI50 (SF-268) was 6.78 µM (inactive), the GI50 (RPMI-8226) was 8.85 µM (inactive) and the GI50 (NCI-H522) was 11.2 µM (inactive). The GI50 (NCI/ADR-RES) was 12.8 µM (inactive), the GI50 (HCC 2998) was 14.8 µM (inactive) and the GI50 (T47D) was 15.6 µM (inactive). For the same compound, the GI50 (HT-29) was 13 µM (inactive), the GI50 (MOLT-4) was 3.17 µM (inactive) and the GI50 (Hs-578T) was 4.1 µM (inactive).

With `COC(=O)C1=C(O)C(C(=O)OC)[C@]2(O)[C@H](C(=O)OC)[C@H]1C[C@@H](c1c(Cl)cccc1Cl)[C@H]2C(=O)OC` (some centres undefined) the GI50 (HOP-92) was 2.69 µM (inactive), the GI50 (DU-145) was 2.68 µM (inactive) and the GI50 (SR) was 1.82 µM (inactive). The GI50 (NCI-H226) was 2.14 µM (inactive), the GI50 (HL-60) was 5.81 µM (inactive) and the GI50 (786-0) was 1.73 µM (inactive). The GI50 (A498) was 2 µM (inactive), the GI50 (K562) was 2.05 µM (inactive) and the GI50 (HOP-62) was 3.07 µM (inactive). The GI50 (OVCAR-3) was 2.77 µM (inactive), the GI50 (MDA-MB-231) was 2.96 µM (inactive) and the GI50 (KM12) was 2.55 µM (inactive). The GI50 (RXF 393) was 1.75 µM (inactive), the GI50 (M14) was 1.55 µM (inactive) and the GI50 (OVCAR-8) was 1.79 µM (inactive). The GI50 (SK-OV-3) was 3.96 µM (inactive), the GI50 (UACC-62) was 2.02 µM (inactive) and the GI50 (SF-539) was 1.93 µM (inactive). For the same compound, the GI50 (SF-295) was 2.67 µM (inactive), the GI50 (BT-549) was 1.88 µM (inactive) and the GI50 (COLO 205) was 2.07 µM (inactive). The GI50 (CAKI-1) was 2.83 µM (inactive), the GI50 (SNB-75) was 2.23 µM (inactive) and the GI50 (U-251) was 1.32 µM (inactive). The GI50 (SW-620) was 2.55 µM (inactive), the GI50 (MDA-N) was 1.37 µM (inactive) and the GI50 (SK-MEL-28) was 2.24 µM (inactive). For the same compound, the GI50 (MDA-MB-435) was 1.33 µM (inactive), the GI50 (PC-3) was 1.99 µM (inactive) and the GI50 (SNB-19) was 2.07 µM (inactive). For the same compound, the GI50 (LOX IMVI) was 1.87 µM (inactive), the GI50 (IGROV-1) was 2.16 µM (inactive) and the GI50 (NCI-H460) was 2.31 µM (inactive). The GI50 (MCF7) was 3.24 µM (inactive), the GI50 (UO-31) was 1.65 µM (inactive) and the GI50 (ACHN) was 2.19 µM (inactive). For the same compound, the GI50 (SN12C) was 2.23 µM (inactive), the GI50 (A549) was 2.23 µM (inactive) and the GI50 (NCI-H23) was 2.02 µM (inactive). For the same compound, the GI50 (SK-MEL-2) was 1.49 µM (inactive), the GI50 (HCT-116) was 1.97 µM (inactive) and the GI50 (EKVX) was 4.25 µM (inactive). For the same compound, the GI50 (OVCAR-4) was 3.6 µM (inactive), the GI50 (Malme-3M) was 2.07 µM (inactive) and the GI50 (SK-MEL-5) was 1.66 µM (inactive). The GI50 (HCT-15) was 1.74 µM, the GI50 (UACC-257) was 2.08 µM (inactive) and the GI50 (SF-268) was 3.13 µM (inactive). For the same compound, the GI50 (RPMI-8226) was 1.51 µM (inactive), the GI50 (NCI/ADR-RES) was 2.04 µM (inactive) and the GI50 (HCC 2998) was 1.66 µM (inactive). The GI50 (T47D) was 3.79 µM (inactive), the GI50 (HT-29) was 2.33 µM (inactive) and the GI50 (MOLT-4) was 1.81 µM (inactive). The GI50 (Hs-578T) was 3.35 µM (inactive).

Source: ChEMBL document CHEMBL1201862, “PubChem BioAssay data set” (2004)
